In ChEMBL document CHEMBL1146005, “Estrogen receptor beta-subtype selective tetrahydrofluorenones: use of a fused pyrazole as a phenol bioisostere” (Bioorg Med Chem Lett, 2006):

What was measured:
Estrogen receptor beta [1] = biological target: T1, Estrogen receptor beta (Homo sapiens, UniProt Q92731)
Description: Binding affinity to human ERbeta

Estrogen receptor [2] = biological target: T2, Estrogen receptor (Homo sapiens, UniProt P03372)
T2 sequence (P03372 whole entry): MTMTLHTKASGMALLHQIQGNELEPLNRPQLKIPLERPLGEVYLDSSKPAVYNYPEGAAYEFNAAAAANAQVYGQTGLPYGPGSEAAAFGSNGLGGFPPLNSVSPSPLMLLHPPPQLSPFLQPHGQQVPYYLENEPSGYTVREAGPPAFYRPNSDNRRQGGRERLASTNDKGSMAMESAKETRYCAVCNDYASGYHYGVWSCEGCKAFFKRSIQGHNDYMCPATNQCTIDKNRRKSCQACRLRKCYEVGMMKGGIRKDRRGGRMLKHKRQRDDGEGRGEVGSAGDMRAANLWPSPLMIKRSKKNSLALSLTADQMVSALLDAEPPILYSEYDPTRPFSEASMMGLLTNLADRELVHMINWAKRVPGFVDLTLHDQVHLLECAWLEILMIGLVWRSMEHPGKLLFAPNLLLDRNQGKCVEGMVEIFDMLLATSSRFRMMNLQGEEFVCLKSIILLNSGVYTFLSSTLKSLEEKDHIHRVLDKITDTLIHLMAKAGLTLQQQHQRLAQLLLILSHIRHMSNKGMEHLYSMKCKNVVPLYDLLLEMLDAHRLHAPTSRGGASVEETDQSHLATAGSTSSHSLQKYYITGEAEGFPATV
Description: Agonist activity at human ERalpha transfected in HEK293 cells assessed as transactivation of alkaline phosphatase reporter gene

[3] = Half life in Sprague-Dawley rat at 1 mg/kg, iv and 2 mg/kg, po; format: ADME, organism-based; details: in vivo
[4] = Clearance in Sprague-Dawley rat at 1 mg/kg, iv and 2 mg/kg, po; format: ADME, organism-based; details: in vivo
[5] = AUC in Sprague-Dawley rat at 1 mg/kg, iv; format: ADME, organism-based; design: dose 1 mg/kg, route intravenous; details: plasma
Estrogen receptor [6] = biological target: T2, Estrogen receptor; remark: listed apart in the source
Description: Binding affinity to human ERalpha

[7] = Oral bioavailability in Sprague-Dawley rat at 1 mg/kg, iv and 2 mg/kg, po; format: ADME, organism-based; details: in vivo
Estrogen receptor beta [8] = biological target: T1, Estrogen receptor beta; remark: listed apart in the source
Description: Agonist activity at human ERbeta transfected in HEK293 cells assessed as transactivation of alkaline phosphatase reporter gene

T1 sequence (Q92731 whole entry): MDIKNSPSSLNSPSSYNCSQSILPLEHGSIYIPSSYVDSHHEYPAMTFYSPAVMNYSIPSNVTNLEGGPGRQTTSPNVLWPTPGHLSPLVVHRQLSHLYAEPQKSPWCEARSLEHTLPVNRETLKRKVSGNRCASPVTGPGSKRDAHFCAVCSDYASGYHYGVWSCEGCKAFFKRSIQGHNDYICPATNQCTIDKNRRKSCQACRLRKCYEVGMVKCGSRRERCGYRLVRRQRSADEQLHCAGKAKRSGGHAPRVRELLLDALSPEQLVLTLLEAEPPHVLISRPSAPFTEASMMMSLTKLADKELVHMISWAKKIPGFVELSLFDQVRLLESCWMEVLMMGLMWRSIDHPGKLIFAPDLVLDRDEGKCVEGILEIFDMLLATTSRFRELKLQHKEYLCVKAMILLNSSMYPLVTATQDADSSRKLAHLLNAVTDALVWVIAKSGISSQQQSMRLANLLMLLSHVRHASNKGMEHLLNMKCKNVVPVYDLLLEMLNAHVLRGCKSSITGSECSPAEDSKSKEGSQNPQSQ

Compound | IC50 (Estrogen receptor beta [1]) | EC50 (Estrogen receptor [2]) | half-life [3] | clearance [4] | AUC [5] | IC50 (Estrogen receptor [6]) | bioavailability [7] | EC50 (Estrogen receptor beta [8])
CC[C@@]12CCC(=O)C(C(F)(F)F)=C1c1ccc3[nH]ncc3c1C2 | 2.8 nM | 50 nM | 0.7 h | 36 mL/min/kg | 1.5 µM·h | 360 nM | 74% | 0.6 nM
CC[C@@]12CCC(=O)C(C3CC3)=C1c1ccc3[nH]ncc3c1C2 | 7.7 nM | > 1000 nM | 0.9 h | 58 mL/min/kg | 1 µM·h | 470 nM | 55% | 5.8 nM
CC[C@@]12CCC(=O)C(C)=C1c1ccc3[nH]ncc3c1C2 | 7.2 nM | 104 nM | 1.1 h | 44 mL/min/kg | 1.5 µM·h | 1360 nM | 51% | 2.1 nM
CC[C@@]12CCC(=O)C(c3ccccc3)=C1c1ccc3[nH]ncc3c1C2 | 1.4 nM | 72 nM | – | – | – | 46 nM | – | 0.8 nM
O=C1CC[C@@]2(CC3CC3)Cc3c(ccc4[nH]ncc34)C2=C1Br | 4 nM | – | – | – | – | 230 nM | – | –
O=C1CC[C@@]2(CCC3CC3)Cc3c(ccc4[nH]ncc34)C2=C1Br | 1.6 nM | 61 nM | 1.2 h | 55 mL/min/kg | 0.8 µM·h | 229 nM | 51% | 0.9 nM
CCCC[C@@]12CCC(=O)C(CC)=C1c1ccc3[nH]ncc3c1C2 | 1.1 nM | – | – | – | – | 93 nM | – | –
CC[C@@]12CCC(=O)C(Cl)=C1c1ccc3[nH]nc(F)c3c1C2 | 1.1 nM | – | – | – | – | 82 nM | – | –
CCCC[C@@]12CCC(=O)C(CC)=C1c1ccc3[nH]nc(F)c3c1C2 | 0.3 nM | – | – | – | – | 23 nM | – | –
CC[C@@]12CCC(=O)C(Br)=C1c1ccc3[nH]ncc3c1C2 | 2.2 nM | 65 nM | 0.7 h | 74 mL/min/kg | 0.7 µM·h | 249 nM | 64% | 0.7 nM
CC[C@@]12CCC(=O)C(C(F)(F)F)=C1c1ccc3[nH]ncc3c1C2=O | 1.5 nM | 10.4 nM | 1.2 h | 15 mL/min/kg | 3.2 µM·h | 58 nM | 62% | 0.4 nM
CC[C@@]12CCC(=O)C(Cl)=C1c1ccc3[nH]ncc3c1C2=O | 4.1 nM | – | – | – | – | 139 nM | – | –
CCCC[C@@]12CCC(=O)C(C(F)(F)F)=C1c1ccc3[nH]ncc3c1C2 | 0.8 nM | – | 0.9 h | 64 mL/min/kg | 0.9 µM·h | 176 nM | 25% | –
CCCC[C@@]12CCC(=O)C(C(=O)OC)=C1c1ccc3[nH]ncc3c1C2 | 5.2 nM | – | – | – | – | 2080 nM | – | –
C[C@@]12CCC(=O)C(C(F)(F)F)=C1c1ccc3[nH]ncc3c1C2 | 8 nM | – | – | – | – | 1480 nM | – | –
CC[C@]12CCC(=O)C(C)=C1c1ccc3[nH]ncc3c1C2 | 4460 nM | 1100 nM | 0.8 h | 31 mL/min/kg | 2 µM·h | > 10000 nM | 44% | 935 nM
CCCC[C@@]12CCC(=O)C(C(F)(F)F)=C1c1ccc3[nH]nc(F)c3c1C2 | 1 nM | – | – | – | – | 49.2 nM | – | –
CC[C@@]12CCC(=O)C(C(F)(F)F)=C1c1ccc3[nH]nc(F)c3c1C2 | 0.3 nM | 8.3 nM | 1.9 h | 42 mL/min/kg | 1.2 µM·h | 50.9 nM | 27% | 0.2 nM
CC[C@@]12CCC(=O)C(Cl)=C1c1ccc3[nH]ncc3c1C2 | 7.7 nM | 152 nM | 0.5 h | 72 mL/min/kg | 0.9 µM·h | 470 nM | 47% | 1.5 nM

Compound | IC50 (Estrogen receptor beta [1]) | EC50 (Estrogen receptor [2]) | half-life [3] | clearance [4] | AUC [5] | IC50 (Estrogen receptor [6]) | bioavailability [7] | EC50 (Estrogen receptor beta [8])
CCCC[C@@]12CCC(=O)C(C(F)(F)F)=C1c1ccc3[nH]ncc3c1C2=O | 0.9 nM | – | 1.8 h | 69 mL/min/kg | 0.7 µM·h | 40 nM | 21% | –
CCC12CCC(=O)C(C(=O)OC)=C1c1ccc3[nH]ncc3c1C2 (racemic) | 207 nM | 1170 nM | – | – | – | > 10000 nM | – | 210 nM
CCCCC12CCC(=O)C(C)=C1c1ccc3[nH]ncc3c1C2 (racemic) | 12 nM | – | – | – | – | 1050 nM | – | –
CCCCC12CCC(=O)C(Br)=C1c1ccc(O)cc1C2 (racemic) | – | – | 1.5 h | 102 mL/min/kg | 0.5 µM·h | – | 0% | –
CCC12CCC(=O)C(C)=C1c1ccc3[nH]nc(Cl)c3c1C2 (racemic) | 42.5 nM | – | – | – | – | 2420 nM | – | –
CCC12CCC(=O)C(Br)=C1c1ccc3[nH]nc(F)c3c1C2 (racemic) | 1.6 nM | 33.1 nM | – | – | – | 197 nM | – | 0.8 nM
CCC1=C2c3ccc4[nH]ncc4c3CC2(CC)CCC1=O (racemic) | 4 nM | 59 nM | – | – | – | 223 nM | – | 1.7 nM
CCCCC12CCC(=O)C(Br)=C1c1ccc3[nH]ncc3c1C2 (racemic) | 4.9 nM | – | – | – | – | 1410 nM | – | –
CC1=C2c3ccc4[nH]ncc4c3CC2(C)CCC1=O (racemic) | 69 nM | – | – | – | – | 4410 nM | – | –
CCCC12CCC(=O)C(C)=C1c1ccc3[nH]ncc3c1C2 (racemic) | 12.6 nM | – | – | – | – | 976 nM | – | –
CCC12CCC(=O)C=C1c1ccc3[nH]ncc3c1C2 (racemic) | 618 nM | > 1000 nM | – | – | – | > 10000 nM | – | 76 nM
CC12CCC(=O)C(Br)=C1c1ccc3[nH]ncc3c1C2 (racemic) | 26 nM | – | – | – | – | 1990 nM | – | –
CCCCC12CCC(=O)C(C3CC3)=C1c1ccc3[nH]ncc3c1C2 (racemic) | 7 nM | – | – | – | – | 422 nM | – | –
CCC12CCC(=O)C(C)=C1c1ccc3[nH]nc(Br)c3c1C2 (racemic) | 103 nM | – | – | – | – | 5880 nM | – | –
CCC12CCC(=O)C(C)=C1c1ccc3[nH]ncc3c1C2=O (racemic) | 31.8 nM | – | – | – | – | 624 nM | – | –
CCC12CCC(=O)C(Br)=C1c1ccc3[nH]ncc3c1C2=O (racemic) | 8 nM | 49 nM | – | – | – | 352 nM | – | 1.5 nM
CCCC12CCC(=O)C(Br)=C1c1ccc3[nH]ncc3c1C2 (racemic) | 5.4 nM | – | – | – | – | 663 nM | – | –
CCCCC12CCC(=O)C=C1c1ccc3[nH]ncc3c1C2 (racemic) | 283 nM | – | – | – | – | > 10000 nM | – | –
